The target in one experiment is T1, PI3Kδ (p110δ/p85α) (Homo sapiens, UniProt O00329).
T1 construct: purchased Millipore (Bedford, Mass.)
In words: PI3Kδ scintillation proximity assay. The following applies: 20 μM ATP, 4 nM PI3Kδ. It counts as biochemical. In short, it runs like this: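 Radiometric SPA: product captured on WGA beads after EDTA quench and counted, IC50 fitted against log inhibitor concentration. Reactions ran 210 min at room temperature with 4 nM PI3Kδ (p110δ/p85α), 20 μM each PIP2 and ATP plus 33P-ATP, pH 6.7 MOPS buffer, 0.5% DMSO final.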
(In a scintillation proximity assay essentially only radioactivity close to the scintillant gives light.)

Experiment [1] relates to Pfeiffer cell line (diffuse large B cell lymphoma). In words: Pfeiffer cell proliferation assay. It counts as cell-based. The following applies: Homo sapiens, Pfeiffer, Pfeiffer cells, 3-4 days plus 12 hours [3H]-thymidine incorporation. As for the experimental part:
Example C: Pfeiffer Cell Proliferation Assay
Pfeiffer cell line (diffuse large B cell lymphoma) was purchased from ATCC (Manassas, Va.) and maintained in the culture medium recommended (RPMI and 10% FBS). To measure the anti-proliferation activity of the compounds, the Pfeiffer cells were plated with the culture medium (2×10^3 cells/well/per 200 μl) into 96-well ultra-low binding plates (Corning, Corning, N.Y.), in the presence or absence of a concentration range of test compounds. After 3-4 days, [^3H]-thymidine (1 μCi/well) (PerkinElmer, Boston, Mass.) in PBS was then added to the cell culture for an additional 12 hours before the incorporated radioactivity was separated by filtration with water through GF/B filters (Packard Bioscience, Meridenj, Conn.) and measured by liquid scintillation counting with a TopCount (Packard Bioscience).
For orientation: Incorporation of labelled thymidine or its analogues reports DNA synthesis.

pIC50: −log10 of the molar value. Counter-ions that a name gives are not always drawn. Where only a bound is given, the exact number is not on record here.

T1 sequence (O00329 whole entry, species assumed): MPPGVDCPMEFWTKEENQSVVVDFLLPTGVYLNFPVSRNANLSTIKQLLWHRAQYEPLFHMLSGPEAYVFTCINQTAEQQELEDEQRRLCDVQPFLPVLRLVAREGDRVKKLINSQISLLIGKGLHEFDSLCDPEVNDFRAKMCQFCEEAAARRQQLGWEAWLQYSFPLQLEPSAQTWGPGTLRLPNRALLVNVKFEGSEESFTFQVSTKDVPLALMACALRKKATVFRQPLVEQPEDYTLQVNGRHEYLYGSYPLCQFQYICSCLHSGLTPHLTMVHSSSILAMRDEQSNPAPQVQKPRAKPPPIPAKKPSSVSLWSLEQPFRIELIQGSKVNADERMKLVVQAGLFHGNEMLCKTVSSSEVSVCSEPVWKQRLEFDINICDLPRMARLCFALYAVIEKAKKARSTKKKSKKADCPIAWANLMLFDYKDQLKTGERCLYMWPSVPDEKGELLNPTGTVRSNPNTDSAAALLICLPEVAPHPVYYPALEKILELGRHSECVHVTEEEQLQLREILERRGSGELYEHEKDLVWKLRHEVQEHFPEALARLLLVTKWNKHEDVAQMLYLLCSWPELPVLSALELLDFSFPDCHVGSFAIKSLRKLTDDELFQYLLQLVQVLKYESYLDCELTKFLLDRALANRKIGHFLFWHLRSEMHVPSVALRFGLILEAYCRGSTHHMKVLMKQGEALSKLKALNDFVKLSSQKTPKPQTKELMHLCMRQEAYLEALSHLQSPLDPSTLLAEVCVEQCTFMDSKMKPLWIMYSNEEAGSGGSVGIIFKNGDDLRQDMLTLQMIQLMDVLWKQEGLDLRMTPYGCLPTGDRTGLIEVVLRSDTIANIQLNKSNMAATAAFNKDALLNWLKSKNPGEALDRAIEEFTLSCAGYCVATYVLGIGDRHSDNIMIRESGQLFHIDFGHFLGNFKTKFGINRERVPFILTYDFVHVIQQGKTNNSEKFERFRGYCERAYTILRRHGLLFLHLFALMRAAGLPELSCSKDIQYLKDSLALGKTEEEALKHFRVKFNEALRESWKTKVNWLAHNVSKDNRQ
T1 sequence (P27986 whole entry partner, species assumed): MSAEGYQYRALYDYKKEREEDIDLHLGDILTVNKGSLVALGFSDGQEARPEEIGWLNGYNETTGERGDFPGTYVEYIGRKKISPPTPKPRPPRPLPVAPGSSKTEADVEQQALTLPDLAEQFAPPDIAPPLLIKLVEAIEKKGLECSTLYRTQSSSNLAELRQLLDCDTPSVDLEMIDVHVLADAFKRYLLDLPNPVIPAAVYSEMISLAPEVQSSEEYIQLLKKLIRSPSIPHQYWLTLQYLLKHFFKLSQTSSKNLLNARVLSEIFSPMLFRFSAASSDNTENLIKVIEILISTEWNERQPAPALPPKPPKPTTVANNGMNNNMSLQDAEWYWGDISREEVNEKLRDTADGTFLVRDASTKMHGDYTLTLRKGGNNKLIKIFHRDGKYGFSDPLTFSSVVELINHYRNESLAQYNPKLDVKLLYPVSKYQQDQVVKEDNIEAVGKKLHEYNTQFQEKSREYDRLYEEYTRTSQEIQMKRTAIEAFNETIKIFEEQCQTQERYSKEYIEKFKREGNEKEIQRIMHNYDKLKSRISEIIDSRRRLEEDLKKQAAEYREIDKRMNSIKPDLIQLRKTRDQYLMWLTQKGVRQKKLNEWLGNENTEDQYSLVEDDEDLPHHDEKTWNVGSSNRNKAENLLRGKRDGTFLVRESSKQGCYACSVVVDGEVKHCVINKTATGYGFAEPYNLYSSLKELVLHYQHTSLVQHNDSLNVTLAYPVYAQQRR

With `COc1c(C(C)Nc2ncnc3[nH]cnc23)cc(Cl)c(C)c1-c1ccc(CC#N)cc1` (centres unmarked) [Example 41, {3′-chloro-6′-methoxy-2′-methyl-5′-[1-(9H-purin-6-ylamino)ethyl]biphenyl-4-yl}acetonitril], the pIC50 – broadly, the negative decadic logarithm of the IC50, by convention in mol/L – at PI3Kδ (p110δ/p85α) is greater than 7.30; in experiment [1], less than 6.00.

Turning to `COCc1ccc(-c2c(C)c(Cl)cc(C(C)Nc3ncnc4[nH]cnc34)c2OC)cc1` (centres unmarked) [Example 42, N-{1-[5-chloro-2-methoxy-4′-(methoxymethyl)-6-methylbiphenyl-3-yl]ethyl}-9H-purin-6-amine], the pIC50 at PI3Kδ (p110δ/p85α) was greater than 7.30; in experiment [1] it was 6.30 to 7.00.

`COc1c(C(C)Nc2ncnc3[nH]cnc23)cc(Cl)c(C)c1-c1ccc(-n2cccn2)cc1` (centres unmarked) [Example 43, N-{1-[5-chloro-2-methoxy-6-methyl-4′-(1H-pyrazol-1-yl)biphenyl-3-yl]ethyl}-9H-purin-6-amine]: the pIC50 at PI3Kδ (p110δ/p85α) was greater than 7.30; in experiment [1] it was 6.30 to 7.00.

In the case of `COCc1cccc(-c2c(C)c(Cl)cc(C(C)Nc3ncnc4[nH]cnc34)c2OC)c1` (centres unmarked) [Example 44, N-{1-[5-chloro-2-methoxy-3′-(methoxymethyl)-6-methylbiphenyl-3-yl]ethyl}-9H-purin-6-amine], the values for the pIC50 (at PI3Kδ (p110δ/p85α); in experiment [1]) were greater than 7.30 and 6.30 to 7.00, respectively.

As to `COc1c(C(C)Nc2ncnc3[nH]cnc23)cc(Cl)c(C)c1-c1ccc(OC2CCOCC2)nc1` (centres unmarked) [Example 45, N-(1-{5-chloro-2-methoxy-4-methyl-3-[6-(tetrahydro-2H-pyran-4-yloxy)pyridin-3-yl]phenyl}ethyl)-9H-purin-6-amine], the pIC50 against PI3Kδ (p110δ/p85α) was greater than 7.30; in experiment [1], 6.30 to 7.00.

Take `COc1c(C(C)Nc2ncnc3[nH]cnc23)cc(Cl)c(C)c1-c1cccc(CC#N)c1` (centres unmarked) [Example 46, {3′-chloro-6′-methoxy-2′-methyl-5′-[1-(9H-purin-6-ylamino)ethyl]biphenyl-3-yl}acetonitrile]: the pIC50 against PI3Kδ (p110δ/p85α) was greater than 7.30; in experiment [1], greater than 7.00.

Regarding `COc1c(C(C)Nc2ncnc3[nH]cnc23)cc(Cl)c(C)c1-c1cc(Cl)cc(Cl)c1` (centres unmarked) [Example 47, N-[1-(3′,5,5′-trichloro-2-methoxy-6-methylbiphenyl-3-yl)ethyl]-9H-purin-6-amine], the pIC50 at PI3Kδ (p110δ/p85α) was 6.60 to 7.00; in experiment [1] it was less than 6.00.

Consider `COc1c(C(C)Nc2ncnc3[nH]cnc23)cc(Cl)c(C)c1-c1ccc(N2CCOCC2)nc1` (centres unmarked) [Example 48, N-{1-[5-chloro-2-methoxy-4-methyl-3-(6-morpholin-4-ylpyridin-3-yl)phenyl]ethyl}-9H-purin-6-amine], for which the figures for the pIC50 (on PI3Kδ (p110δ/p85α); in experiment [1]) were greater than 7.30 and greater than 7.00, respectively.

On to `COc1c(C(C)Nc2ncnc3[nH]cnc23)cc(Cl)c(C)c1-c1ccnc(N2CCOCC2)c1F` (centres unmarked) [Example 49, N-{1-[5-chloro-3-(3-fluoro-2-morpholin-4-ylpyridin-4-yl)-2-methoxy-4-methylphenyl]ethyl}-9H-purin-6-amine], for which the pIC50 against PI3Kδ (p110δ/p85α) was greater than 7.30; in experiment [1] it was greater than 7.00.

As for `COc1c(C(C)Nc2ncnc3[nH]cnc23)cc(Cl)c(C)c1-c1ccc(F)nc1` (centres unmarked) [Example 51, N-{1-[5-chloro-3-(6-fluoropyridin-3-yl)-2-methoxy-4-methylphenyl]ethyl}-9H-purin-6-amine], the negative-log IC50 (pIC50) against PI3Kδ (p110δ/p85α) is greater than 7.30; in experiment [1], greater than 7.00.

`COc1ccc(-c2c(C)c(Cl)cc(C(C)Nc3ncnc4[nH]cnc34)c2OC)cn1` (centres unmarked) [Example 52, N-{1-[5-chloro-2-methoxy-3-(6-methoxypyridin-3-yl)-4-methylphenyl]ethyl}-9H-purin-6-amine]: the pIC50 is greater than 7.30 at PI3Kδ (p110δ/p85α) and greater than 7.00 in experiment [1].

`COc1c(C(C)Nc2ncnc3[nH]cnc23)cc(Cl)c(C)c1N1CCC(O)CC1` (centres unmarked) [Example 60, 1-{3-Chloro-6-methoxy-2-methyl-5-[1-(9H-purin-6-ylamino)ethyl]phenyl}piperidin-4-ol]: the results for the negative-log IC50 (pIC50) (at PI3Kδ (p110δ/p85α); in experiment [1]) were greater than 7.30 and less than 6.00, respectively.

Regarding `Cc1noc(C)c1-c1c(C)c(Cl)cc(C(C)Nc2ncnc3[nH]cnc23)c1-c1cccc(F)c1` (centres unmarked) [Example 71, N-{1-[4-chloro-6-(3,5-dimethylisoxazol-4-yl)-3′-fluoro-5-methylbiphenyl-2-yl]ethyl}-9H-purin-6-amine trifluoroacetate], the pIC50 against PI3Kδ (p110δ/p85α) is greater than 7.30; in experiment [1], greater than 7.00.

For `Cc1c(Cl)cc(C(C)Nc2ncnc3[nH]cnc23)c(-c2cccc(F)c2)c1-c1cn[nH]c1` (centres unmarked) [Example 72, N-{1-[4-Chloro-3′-fluoro-5-methyl-6-(1H-pyrazol-4-yl)biphenyl-2-yl]ethyl}-9H-purin-6-amine trifluoroacetate], the pIC50 at PI3Kδ (p110δ/p85α) is greater than 7.30; in experiment [1] it was greater than 7.00.

For `Cc1c(Cl)cc(C(C)Nc2ncnc3[nH]cnc23)c(-c2cccc(F)c2)c1-c1ccnn1C` (centres unmarked) [Example 74, N-{1-[4-chloro-3′-fluoro-5-methyl-6-(1-methyl-1H-pyrazol-5-yl)biphenyl-2-yl]ethyl}-9H-purin-6-amine], the pIC50 against PI3Kδ (p110δ/p85α) was greater than 7.30; in experiment [1], greater than 7.00.

Take `Cc1nn(C)c(C)c1-c1c(C)c(Cl)cc(C(C)Nc2ncnc3[nH]cnc23)c1-c1cccc(F)c1` (centres unmarked) [Example 75, N-{1-[4-chloro-3′-fluoro-5-methyl-6-(1,3,5-trimethyl-1H-pyrazol-4-yl)biphenyl-2-yl]ethyl}-9H-purin-6-amine]: the pIC50 against PI3Kδ (p110δ/p85α) was greater than 7.30; in experiment [1], greater than 7.00.

As for `Cc1c(Cl)cc(C(C)Nc2ncnc3[nH]cnc23)c(-c2cc(F)cc(F)c2)c1-c1ccncc1` (centres unmarked) [Example 76, N-[1-(4-Chloro-3′,5′-difluoro-5-methyl-6-pyridin-4-ylbiphenyl-2-yl)ethyl]-9H-purin-6-amine bis(trifluoroacetate)], the pIC50 on PI3Kδ (p110δ/p85α) is greater than 7.30; in experiment [1], greater than 7.00.

As to `Cc1noc(C)c1-c1c(C)c(Cl)cc(C(C)Nc2ncnc3[nH]cnc23)c1-c1cc(F)cc(F)c1` (centres unmarked) [Example 77, N-{1-[4-chloro-6-(3,5-dimethylisoxazol-4-yl)-3′,5′-difluoro-5-methylbiphenyl-2-yl]ethyl}-9H-purin-6-amine], the pIC50 against PI3Kδ (p110δ/p85α) was greater than 7.30; in experiment [1], greater than 7.00.

Regarding `Cc1c(Cl)cc(C(C)Nc2ncnc3[nH]cnc23)c(-c2cc(F)cc(F)c2)c1-c1cccnc1` (centres unmarked) [Example 78, N-[1-(4-chloro-3′,5′-difluoro-5-methyl-6-pyridin-3-ylbiphenyl-2-yl)ethyl]-9H-purin-6-amine], the pIC50 against PI3Kδ (p110δ/p85α) is greater than 7.30; in experiment [1] it was greater than 7.00.

As for `Cc1c(Cl)cc(C(C)Nc2ncnc3[nH]cnc23)c(-c2cc(F)cc(F)c2)c1-c1ccc(C#N)cc1` (centres unmarked) [Example 79, 5′-chloro-3″,5″-difluoro-6′-methyl-3′-[1-(9H-purin-6-ylamino)ethyl]-1,1′:2′,1″-terphenyl-4-carbonitrile], the negative logarithm of the IC50 (pIC50) was 6.60 to 7.00 against PI3Kδ (p110δ/p85α) and 6.30 to 7.00 in experiment [1].

With `Cc1c(Cl)cc(C(C)Nc2ncnc3[nH]cnc23)c(-c2cc(F)cc(F)c2)c1-c1cc(F)nc(F)c1` (centres unmarked) [Example 80, N-{1-[4-chloro-6-(2,6-difluoropyridin-4-yl)-3′,5′-difluoro-5-methylbiphenyl-2-yl]ethyl}-9H-purin-6-amine], the pIC50 on PI3Kδ (p110δ/p85α) was greater than 7.30; in experiment [1], greater than 7.00.

In the case of `Cc1c(Cl)cc(C(C)Nc2ncnc3[nH]cnc23)c(-c2cc(F)cc(F)c2)c1-c1cncnc1` (centres unmarked) [Example 81, N-[1-(4-chloro-3′,5′-difluoro-5-methyl-6-pyrimidin-5-ylbiphenyl-2-yl)ethyl]-9H-purin-6-amine], the pIC50 at PI3Kδ (p110δ/p85α) is greater than 7.30; in experiment [1], greater than 7.00.

For the compound `COc1ncc(-c2c(C)c(Cl)cc(C(C)Nc3ncnc4[nH]cnc34)c2-c2cc(F)cc(F)c2)cn1` (centres unmarked) [Example 82, N-{1-[4-chloro-3′,5′-difluoro-6-(2-methoxypyrimidin-5-yl)-5-methylbiphenyl-2-yl]ethyl}-9H-purin-6-amine], the pIC50 against PI3Kδ (p110δ/p85α) was greater than 7.30; in experiment [1], greater than 7.00.

For the compound `CC(=O)Nc1ccc(-c2c(C)c(Cl)cc(C(C)Nc3ncnc4[nH]cnc34)c2-c2cc(F)cc(F)c2)cc1` (centres unmarked) [Example 83, N-{5′-chloro-3″,5″-difluoro-6′-methyl-3′-[1-(9H-purin-6-ylamino)ethyl]-1,1′:2′,1″-terphenyl-4-yl}acetamide], the pIC50 is greater than 7.30 on PI3Kδ (p110δ/p85α) and greater than 7.00 in experiment [1].

In the case of `COc1c(C(C)Nc2ncnc3[nH]cnc23)cc(Cl)c(C)c1-c1ccnc(F)c1` (centres unmarked) [Example 84, N-{1-[5-chloro-3-(2-fluoropyridin-4-yl)-2-methoxy-4-methylphenyl]ethyl}-9H-purin-6-amine], the values for the negative-log IC50 (pIC50) (against PI3Kδ (p110δ/p85α); in experiment [1]) were greater than 7.30 and greater than 7.00, respectively.

As to `COc1c(C(C)Nc2ncnc3[nH]cnc23)cc(Cl)c(C)c1-c1cnc(F)c(C)c1` (centres unmarked) [Example 87, N-{1-[5-chloro-3-(6-fluoro-5-methylpyridin-3-yl)-2-methoxy-4-methylphenyl]ethyl}-9H-purin-6-amine], the values for the pIC50 (against PI3Kδ (p110δ/p85α); in experiment [1]) were greater than 7.30 and greater than 7.00, respectively.

For `COc1c(C(C)Nc2ncnc3[nH]cnc23)cc(Cl)c(C)c1-c1ccc(N2CCOCC2)cc1` (centres unmarked) [Example 88, N-[1-(5-chloro-2-methoxy-6-methyl-4′-morpholin-4-ylbiphenyl-3-yl)ethyl]-9H-purin-6-amine], the pIC50 on PI3Kδ (p110δ/p85α) is greater than 7.30; in experiment [1], greater than 7.00.

For the compound `COc1c(C(C)Nc2ncnc3[nH]cnc23)cc(Cl)c(C)c1-c1ccc(F)c(Cl)c1` (centres unmarked) [Example 89, N-[1-(3′,5-dichloro-4′-fluoro-2-methoxy-6-methylbiphenyl-3-yl)ethyl]-9H-purin-6-amine], the results for the pIC50 (against PI3Kδ (p110δ/p85α); in experiment [1]) were 7.00 to 7.30 and 6.00 to 6.30, respectively.
